Assay [1] deals with T1, Human GPR120 short form (Homo sapiens, UniProt Q5NUL3).
T1 construct: expressed in transfected cells
T1 sequence (Q5NUL3 1-361): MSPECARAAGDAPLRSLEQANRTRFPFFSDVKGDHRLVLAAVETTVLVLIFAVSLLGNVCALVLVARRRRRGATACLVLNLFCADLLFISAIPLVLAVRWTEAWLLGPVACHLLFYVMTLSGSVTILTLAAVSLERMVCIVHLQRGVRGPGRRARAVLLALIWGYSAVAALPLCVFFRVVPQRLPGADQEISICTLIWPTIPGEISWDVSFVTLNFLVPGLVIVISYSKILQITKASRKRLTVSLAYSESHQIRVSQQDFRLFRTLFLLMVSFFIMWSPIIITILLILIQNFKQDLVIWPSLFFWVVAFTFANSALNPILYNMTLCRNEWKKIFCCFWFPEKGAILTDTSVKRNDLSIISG
Briefly: Human GPR120 calcium flux assay, Procedure Calcium B (4200 cells/well). In kind it is cell-based. As to the method:
Human GPR120 in Calcium Flux Assay
These cells are first loaded with the Ca^+2 sensitive dye, Fluo-4 NW. Upon stimulation, intracellular released Ca^+2 can bind to the dye and alter its fluorescence intensity. This increase in fluorescence signal, and thus the flux in intracellular [Ca^2+], is detected and quantitated by fluorescence imaging using a FLIPR reader. The effect of the agonist is measured as a function of concentration and used to calculate an EC50 based upon a response curve.
In this procedure 4200 cells/well were employed.
A Human GPR120 clone (Genbank accession number NM_001195755.1) was placed into the pcDNA3.1 mammalian expression vector carrying the neomycin resistance gene. A stable mammalian cell was generated by placing the above clone into a HEK293 background. […] Cells were split 2 times a week to keep the cells in the log-phase growth. […]
The assay was performed on a FLIPR plate reader using the following parameters. Baseline was read for 10 seconds at 1 sec intervals. The program was set to transfer 10 μL of ligand from compound plate to cell plate after baseline reading. Aspiration was executed at: 10 μL/sec speed, 4.6 μL height, Dispensing was executed at: 30 μL/sec speed, 45 μL height. After compound addition, each well was read for 300 sec, with measurements collected at 1 sec intervals.
The kinetic data from the FLIPR was based upon a 5 minute window for data collection. The fluorescence of each sample well was used for individual calculations of a normalized RFU value, which was defined as maximum response minus the minimum response. The normalized fluorescence reading (RFU) was calculated as follows: RFU=Fmax−Fmin
The Fitting Equation was: Y=Bottom+(Top-Bottom)/(1+10^((Log EC50−X)*HillSlope)), where X is the log of the concentration and Y is the response.
(Calcium assays in cells follow changes in intracellular calcium, usually with a dye or a luminescent sensor.)

Assay [2] has as its target T2, human GPR40 (Homo sapiens, UniProt O14842).
T2 construct: expressed in transfected cells
Briefly: GPR40 calcium flux assay, human GPR40. In kind it is cell-based. The note with it: HEK293 cells stably expressing GPR40; table does not say human or rat. On the procedure: Compounds were tested in a calcium flux assay using transfected HEK293 cells stably expressing either human GPR40 or rat GPR40. Human GPR40 expressing cells were cultured in DMEM−High Glucose media supplemented with 10% fetal bovine serum, 1×L-Glutamine, 1×Penicillin/Streptomycin and 500 μg/mL G418. Rat GPR40 expressing cells were cultured in DMEM−High Glucose media supplemented with 10% fetal bovine serum and 1 μg/mL puromycin. Cells were plated into poly-D-lysine coated 384-well plates and cultured overnight in a 37° C. humidified tissue culture incubator under 5% CO2/[…] atmosphere.
On the day of the experiment, the culture media was replaced with assay buffer (HBSS, 20 mM HEPES, 0.1% BSA) and the cells incubated at 37° C. for 1 h. Calcium-sensitive fluorescent dye (Fluo 8 No-Wash Calcium Dye, ABD Bioquest) was then added and the cells incubated for another 30 min at 37° C. followed by 15 min at room temperature while protected from the light. The cell plate and a plate of diluted compounds of Formula (I) were loaded into a fluorescent plate reader that added compounds onto the cells while measuring the fluorescence intensity of each well. The plate reader recorded fluorescence intensity at 1 second intervals for 8 min and provided the data for analysis in an Excel format. EC50 values were calculated using Prism (GraphPad) software.

T2 sequence (O14842 whole entry): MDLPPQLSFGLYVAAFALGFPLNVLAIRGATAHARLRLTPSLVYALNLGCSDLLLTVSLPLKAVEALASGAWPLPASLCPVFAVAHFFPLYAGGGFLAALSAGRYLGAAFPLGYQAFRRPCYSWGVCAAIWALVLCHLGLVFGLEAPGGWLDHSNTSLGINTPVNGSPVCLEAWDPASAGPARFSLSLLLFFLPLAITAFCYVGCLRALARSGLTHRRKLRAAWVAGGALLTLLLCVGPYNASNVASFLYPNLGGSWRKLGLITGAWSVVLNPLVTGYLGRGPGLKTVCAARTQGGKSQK

On to `N#Cc1cc(OCC2=C(c3ccc(F)cc3)CC(F)(F)C2)ccc1CCC(=O)O` [Compound 207, 3-[2-cyano-4-[[4,4-difluoro-2-(4-fluorophenyl)cyclopenten-1-yl]methoxy]phenyl]Propanoic Acid], for which the EC50 in assay [1] was found to be 2.1 µM; in assay [2], 1.2 µM.

As to `Cc1cc(CCC(=O)O)ccc1OCC1=C(c2ccco2)CCC1` [Compound 208, 3-[4-[[2-(2-furyl)cyclopenten-1-yl]methoxy]-3-methyl-phenyl]Propanoic Acid], the EC50 in assay [1] was 0.185 µM; in assay [2] it was more than 5 µM.

For `O=C(O)CCc1cc(F)c(OCC2=C(c3ccco3)CCC2)c(F)c1` [Compound 209, 3-[3,5-difluoro-4-[[2-(2-furyl)cyclopenten-1-yl]methoxy]phenyl]Propanoic Acid], the EC50 in assay [1] was 4.64 µM; in assay [2] it was more than 5 µM.

As to `Cc1ccc(C2=C(COc3ccc(CCC(=O)O)cc3C)CCC2)o1` [Compound 211, 3-[3-methyl-4-[[2-(5-methyl-2-furyl)cyclopenten-1-yl]methoxy]phenyl]Propanoic Acid], the EC50 in assay [1] was 0.304 µM; in assay [2], more than 5 µM.

Regarding `Cc1ccc(C2=C(COc3c(F)cc(CCC(=O)O)cc3F)CCC2)o1` [Compound 212, 3-[3,5-difluoro-4-[[2-(5-methyl-2-furyl)cyclopenten-1-yl]methoxy]phenyl]Propanoic Acid], the EC50 in assay [1] and in assay [2] was more than 5 µM in each case.

As to `Cc1ccc(C2=C(COc3ccc(CCC(=O)O)cc3)CCC2)c(O)c1` [Compound 213], the results for the EC50 in assay [1] and in assay [2] were 0.776 µM and more than 5 µM, respectively.

On to `COc1ccc(C2=C(COc3ccc(CCC(=O)O)cc3C)CCC2)cn1` [Compound 218, 3-[4-[[2-(6-methoxy-3-pyridyl)cyclopenten-1-yl]methoxy]-3-methyl-phenyl]Propanoic Acid], for which the figures for the EC50 in assay [1] and in assay [2] were 0.089 µM and more than 5 µM, respectively.

With `CCOc1ccc(C2=C(COc3ccc(CCC(=O)O)c(C)c3C)CCC2)cn1` [Compound 219, 3-[4-[[2-(6-ethoxy-3-pyridyl)cyclopenten-1-yl]methoxy]-2,3-dimethyl-phenyl]Propanoic Acid], the results for the EC50 in assay [1] and in assay [2] were 1.12 µM and more than 5 µM, respectively.

Turning to `COc1ccc(C2=C(COc3ccc(CCC(=O)O)c(C)c3C)CCC2)cn1` [Compound 220, 3-[4-[[2-(6-methoxy-3-pyridyl)cyclopenten-1-yl]methoxy]-2,3-dimethyl-phenyl]Propanoic Acid], the EC50 is 0.16 µM in assay [1] and more than 5 µM in assay [2].

On to `COc1ccc(C2=C(COc3c(F)cc(CCC(=O)O)cc3F)CCC2)cn1` [Compound 221, 3-[3,5-difluoro-4-[[2-(6-methoxy-3-pyridyl)cyclopenten-1-yl]methoxy]phenyl]Propanoic Acid], for which the EC50 in assay [1] is 0.16 µM; in assay [2], more than 5 µM.

Take `Cc1cc(CCC(=O)O)cc(F)c1OCC1=C(c2ccc(F)cc2)CCC1` [Compound 227, 3-[3-fluoro-4-[[2-(4-fluorophenyl)cyclopenten-1-yl]methoxy]-5-methyl-phenyl]Propanoic Acid]: the EC50 was 0.356 µM in assay [1] and more than 5 µM in assay [2].

Regarding `Cc1cc(CCC(=O)O)cc(Cl)c1OCC1=C(c2ccc(F)cc2)CC(F)(F)C1` [Compound 229, 3-[3-chloro-4-[[4,4-difluoro-2-(4-fluorophenyl)cyclopenten-1-yl]methoxy]-5-methyl-phenyl]Propanoic Acid], the results for the EC50 in assay [1] and in assay [2] were 1.05 µM and more than 5 µM, respectively.

`O=C(O)CCc1ccc(OCC2=C(C3=CCCCC3)CCC2)cc1` [Compound 230, 3-[4-[[2-(cyclohexen-1-yl)cyclopenten-1-yl]methoxy]phenyl]Propanoic Acid]: the EC50 in assay [1] was 1.87 µM; in assay [2], more than 5 µM.

Regarding `Cc1cc(CCC(=O)O)ccc1OCC1=C(c2ccco2)CC(F)(F)C1` [Compound 232, 3-[4-[[4,4-difluoro-2-(2-furyl)cyclopenten-1-yl]methoxy]-3-methyl-phenyl]Propanoic Acid], the EC50 in assay [1] and in assay [2] was more than 5 µM each time.

As to `CCCC#CC1=C(COc2ccc(CCC(=O)O)cc2)CCC1` [Compound 233], the EC50 was determined as 0.752 µM in assay [1] and 2.93 µM in assay [2].

For `Cc1ccc(C2=C(COc3ccc(CCC(=O)O)cc3)CCC2)cc1O` [Compound 234], the EC50 in assay [1] is 1.14 µM; in assay [2], more than 5 µM.

As to `O=C(O)CCc1cc(Cl)c(OCC2=C(c3ccc(F)cc3)CCC2)c(Cl)c1` [Compound 235, 3-[3,5-dichloro-4-[[2-(4-fluorophenyl)cyclopenten-1-yl]methoxy]phenyl]Propanoic Acid], the EC50 in assay [1] is 0.668 µM; in assay [2], more than 5 µM.

Turning to `Cc1cc(CCC(=O)O)cc(Cl)c1OCC1=C(c2ccc(F)cc2)CCC1` [Compound 236, 3-[3-chloro-4-[[2-(4-fluorophenyl)cyclopenten-1-yl]methoxy]-5-methyl-phenyl]Propanoic Acid], the results for the EC50 in assay [1] and in assay [2] were 1.27 µM and more than 5 µM, respectively.

For `N#Cc1cc(OCC2=C(c3ccc(F)cc3)CCC2)ccc1CCC(=O)O` [Compound 237, 3-[2-cyano-4-[[2-(4-fluorophenyl)cyclopenten-1-yl]methoxy]phenyl]Propanoic Acid], the EC50 in assay [1] was more than 5 µM; in assay [2] it was 0.923 µM.

Turning to `Cc1cc(CCC(=O)O)ccc1OCC1=C(C2=CCOCC2)CCC1` [Compound 238, 3-[4-[[2-(3,6-dihydro-2H-pyran-4-yl)cyclopenten-1-yl]methoxy]-3-methyl-phenyl]Propanoic Acid], the results for the EC50 in assay [1] and in assay [2] were 0.435 µM and more than 5 µM, respectively.

For the compound `Cc1c(CCC(=O)O)ccc(OCC2=C(C3=CCOCC3)CCC2)c1C` [Compound 239, 3-[4-[[2-(3,6-dihydro-2H-pyran-4-yl)cyclopenten-1-yl]methoxy]-2,3-dimethyl-phenyl]Propanoic Acid], the EC50 in assay [1] was 0.403 µM; in assay [2], more than 5 µM.

For `O=C(O)CCc1ccc(OCC2=C(c3ccc(F)cc3)CCC2)cc1C(F)(F)F` [Compound 240, 3-[4-[[2-(4-fluorophenyl)cyclopenten-1-yl]methoxy]-2-(trifluoromethyl)phenyl]Propanoic Acid], the EC50 in assay [1] was 0.388 µM; in assay [2], 0.187 µM.

Turning to `O=C(O)CCc1ccc(OCC2=C(c3ccccc3)CC(F)(F)C2)cc1C(F)(F)F` [Compound 241], the EC50 in assay [1] worked out at 0.173 µM; in assay [2], 0.222 µM.

Turning to `O=C(O)CCc1ccc(OCC2=C(c3ccccc3)CC(F)(F)C2)cc1Cl` [Compound 242, 3-[2-chloro-4-[(4,4-difluoro-2-phenyl-cyclopenten-1-yl)methoxy]phenyl]Propanoic Acid], the results for the EC50 in assay [1] and in assay [2] were 0.146 µM and 0.836 µM, respectively.

For `Cc1cc(Cl)ccc1C1=C(COc2ccc(CCC(=O)O)c(C(F)(F)F)c2)CCC1` [Compound 243, 3-[4-[[2-(4-chloro-2-methyl-phenyl)cyclopenten-1-yl]methoxy]-2-(trifluoromethyl)phenyl]Propanoic Acid], the EC50 in assay [1] is more than 5 µM; in assay [2], 0.09 µM.

Consider `Cc1ccc(C2=C(COc3cc(C)c(CCC(=O)O)cc3F)CCC2)c(C)c1` [Compound 244, 3-[4-[[2-(2,4-dimethylphenyl)cyclopenten-1-yl]methoxy]-5-fluoro-2-methyl-phenyl]Propanoic Acid], for which the EC50 in assay [1] was found to be 2.24 µM; in assay [2] it was 0.799 µM.

With `Cc1ccc(C2=C(COc3ccc(CCC(=O)O)cc3)CCC2)c(C)c1` [Compound 245, 3-[4-[[2-(2,4-dimethylphenyl)cyclopenten-1-yl]methoxy]phenyl]Propanoic Acid], the EC50 in assay [1] was 2 µM; in assay [2], 1.91 µM.

Broadly, the EC50 is the concentration at which the effect is half-maximal.

The values are drawn from patent publication US11230526B1, “Cylcoalkenyl derivatives useful as agonists of the GPR120 and/or GPR40 receptors” (Janssen Pharmaceutica NV, priority 2018, dated 2022).
